Data: patent US9302999B2, “Substituted triazoles as herbicides” (E. I. DU PONT DE NEMOURS AND COMPANY, priority 2012, dated 2016)

Legend:
Format in all cases: in vivo
[1] = system: lambsquarters (Chenopodium album); assay: Test E pre-/postemergence: lambsquarters; conditions: Preemergence, scale 0 to 100
Source text: (§1) Seeds of plant species selected from corn (Zea mays), soybean (Glycine max), velvetleaf (Abutilon theophrasti), lambsquarters (Chenopodium album), poinsettia, wild (wild poinsettia, Euphorbia heterophylla), pigweed, palmer (palmer pigweed, Amaranthus palmeri), waterhemp (common waterhemp, Amaranthus rudis), smartweed (ladysthumb smartweed, Polygonum persicaria), surinam grass (Brachiaria decumbens), crabgrass, large (large crabgrass, Digitaria sanguinalis), crabgrass, Brazil (Brazilian crabgrass, Digitaria horizontalis), panicum, fall (fall panicum, Panicum dichotomiflorum), foxtail, giant (giant foxtail, Setaria faberii), foxtail, green (green foxtail, Setaria viridis), goosegrass (Eleusine indica), johnsongrass (Sorghum halepense), ragweed (common ragweed, Ambrosia elation), barnyardgrass (Echinochloa crus-galli), sandbur (southern sandbur, Cenchrus echinatus), arrowleaf sida (Sida rhombifolia), ryegrass, Italian (Italian ryegrass, Lolium multiflorum), dayflower, (VA) (Virginia dayflower, Commelina virginica), field bindweed (Convolvulus arvensis), cocklebur (common cocklebur, Xanthium strumarium), morningglory (Ipomoea coccinea), nightshade (eastern black nightshade, Solanum ptycanthum), kochia (Kochia scoparia), nutsedge, yellow (yellow nutsedge, Cyperus esculentus) and beggarticks (hairy beggarticks, Bidens pilosa) were planted into a silt loam soil and treated preemergence with test chemicals formulated in a non-phytotoxic solvent mixture which included a surfactant. At the same time, plants selected from these crop and weed species were planted in pots containing a growing medium comprising spaghnum peat moss, vermiculite, wetting agent and starter nutrients and treated with postemergence applications of some of the test chemicals formulated in the same manner. Plants ranged in height from 2 to 18 cm for postemergence treatments (1- to 4-leaf stage).
(§2) Treated plants and controls were maintained in a greenhouse for 14 to 21 days, after which time all species were compared to controls and visually evaluated. Plant response ratings, summarized in Table E, are based on a scale of 0 to 100 where 0 is no effect and 100 is complete control. A dash (-) response means no test result.

[2] = system: poinsettia, wild (wild poinsettia, Euphorbia heterophylla); assay: Test E pre-/postemergence: poinsettia, wild; conditions: scale 0 to 100
Source text: as §1, §2

[3] = system: smartweed (ladysthumb smartweed, Polygonum persicaria); assay: Test E pre-/postemergence: smartweed; conditions: Postemergence, scale 0 to 100
Method in brief: (§3)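 Visual injury scored 0–100 (0 no effect, 100 complete control) against controls after 14 to 21 days in greenhouse. Compounds formulated in surfactant-containing non-phytotoxic solvent, applied pre-emergence to seeded silt loam or post-emergence to 1- to 4-leaf plants in peat-based medium.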

[4] = system: crabgrass, large (large crabgrass, Digitaria sanguinalis); assay: Test E pre-/postemergence: crabgrass, large; conditions: Preemergence, scale 0 to 100
Source text: as §1, §2

[5] = system: crabgrass, Brazil (Brazilian crabgrass, Digitaria horizontalis); assay: Test E pre-/postemergence: crabgrass, Brazil; conditions: scale 0 to 100
Source text: as §1, §2

[6] = system: panicum, fall (fall panicum, Panicum dichotomiflorum); assay: Test E pre-/postemergence: panicum, fall; conditions: scale 0 to 100
Method in brief: as §3

[7] = system: goosegrass (Eleusine indica); assay: Test E pre-/postemergence: goosegrass; conditions: Preemergence, scale 0 to 100
Method in brief: as §3

[8] = system: johnsongrass (Sorghum halepense); assay: Test E pre-/postemergence: johnsongrass; conditions: Preemergence, scale 0 to 100
Method in brief: as §3

[9] = system: nightshade (eastern black nightshade, Solanum ptycanthum); assay: Test E pre-/postemergence: nightshade; conditions: Preemergence, scale 0 to 100
Method in brief: as §3

kochia (Kochia scoparia) = assay: Test E pre-/postemergence: kochia; conditions: Preemergence, scale 0 to 100
Source text: as §1, §2

[10] = system: beggarticks (hairy beggarticks, Bidens pilosa); assay: Test E pre-/postemergence: beggarticks; conditions: scale 0 to 100
Source text: as §1, §2

Cc1nn(-c2ccc(C(F)(F)F)cc2)nc1Oc1ccnc(C(F)(F)F)c1 [Compound 120]
50: Plant response rating: Lambsquarters ([1]; 31 g ai/ha) | Plant response rating: Poinsettia, Wild ([2]; Preemergence, 250 g ai/ha) | Plant response rating: Kochia (kochia (Kochia scoparia); 62 g ai/ha)
5: Plant response rating: Panicum, Fall ([6]; Postemergence, 8 g ai/ha)
95: Plant response rating: Crabgrass, Large ([4]; 31 g ai/ha) | Plant response rating: Panicum, Fall ([6]; Preemergence, 16 g ai/ha) | Plant response rating: Panicum, Fall ([6]; Preemergence, 31 g ai/ha) | Plant response rating: Goosegrass ([7]; 16 g ai/ha)
0: Plant response rating: Lambsquarters ([1]; 16 g ai/ha) | Plant response rating: Poinsettia, Wild ([2]; Preemergence, 16 g ai/ha) | Plant response rating: Poinsettia, Wild ([2]; Preemergence, 31 g ai/ha) | Plant response rating: Poinsettia, Wild ([2]; Preemergence, 62 g ai/ha) | Plant response rating: Nightshade ([9]; 16 g ai/ha) | Plant response rating: Nightshade ([9]; 31 g ai/ha) | Plant response rating: Kochia (kochia (Kochia scoparia); 16 g ai/ha) | Plant response rating: Beggarticks ([10]; Preemergence, 16 g ai/ha) | Plant response rating: Beggarticks ([10]; Preemergence, 31 g ai/ha)
75: Plant response rating: Crabgrass, Large ([4]; 16 g ai/ha)
25: Plant response rating: Poinsettia, Wild ([2]; Postemergence, 8 g ai/ha) | Plant response rating: Crabgrass, Brazil ([5]; Postemergence, 31 g ai/ha) | Plant response rating: Panicum, Fall ([6]; Postemergence, 125 g ai/ha)
20: Plant response rating: Panicum, Fall ([6]; Postemergence, 62 g ai/ha) | Plant response rating: Kochia (kochia (Kochia scoparia); 31 g ai/ha) | Plant response rating: Beggarticks ([10]; Postemergence, 31 g ai/ha)
100: Plant response rating: Crabgrass, Large ([4]; 125 g ai/ha) | Plant response rating: Crabgrass, Large ([4]; 250 g ai/ha) | Plant response rating: Crabgrass, Brazil ([5]; Preemergence, 31 g ai/ha) | Plant response rating: Crabgrass, Brazil ([5]; Preemergence, 62 g ai/ha) | Plant response rating: Crabgrass, Brazil ([5]; Preemergence, 125 g ai/ha) | Plant response rating: Crabgrass, Brazil ([5]; Preemergence, 250 g ai/ha) | Plant response rating: Panicum, Fall ([6]; Preemergence, 62 g ai/ha) | Plant response rating: Panicum, Fall ([6]; Preemergence, 125 g ai/ha) | Plant response rating: Panicum, Fall ([6]; Preemergence, 250 g ai/ha) | Plant response rating: Goosegrass ([7]; 31 g ai/ha) | Plant response rating: Goosegrass ([7]; 62 g ai/ha) | Plant response rating: Goosegrass ([7]; 125 g ai/ha) | Plant response rating: Goosegrass ([7]; 250 g ai/ha) | Plant response rating: Nightshade ([9]; 250 g ai/ha) | Plant response rating: Kochia (kochia (Kochia scoparia); 250 g ai/ha)
15: Plant response rating: Crabgrass, Brazil ([5]; Postemergence, 16 g ai/ha) | Plant response rating: Johnsongrass ([8]; 16 g ai/ha) | Plant response rating: Johnsongrass ([8]; 31 g ai/ha) | Plant response rating: Johnsongrass ([8]; 62 g ai/ha)
10: Plant response rating: Smartweed ([3]; 8 g ai/ha) | Plant response rating: Smartweed ([3]; 16 g ai/ha) | Plant response rating: Crabgrass, Brazil ([5]; Postemergence, 8 g ai/ha) | Plant response rating: Panicum, Fall ([6]; Postemergence, 16 g ai/ha) | Plant response rating: Panicum, Fall ([6]; Postemergence, 31 g ai/ha) | Plant response rating: Beggarticks ([10]; Postemergence, 8 g ai/ha) | Plant response rating: Beggarticks ([10]; Postemergence, 16 g ai/ha)
40: Plant response rating: Smartweed ([3]; 125 g ai/ha) | Plant response rating: Crabgrass, Brazil ([5]; Postemergence, 125 g ai/ha)
98: Plant response rating: Lambsquarters ([1]; 125 g ai/ha) | Plant response rating: Lambsquarters ([1]; 250 g ai/ha) | Plant response rating: Crabgrass, Large ([4]; 62 g ai/ha) | Plant response rating: Nightshade ([9]; 125 g ai/ha)
30: Plant response rating: Crabgrass, Brazil ([5]; Postemergence, 62 g ai/ha) | Plant response rating: Beggarticks ([10]; Postemergence, 62 g ai/ha)
35: Plant response rating: Poinsettia, Wild ([2]; Postemergence, 16 g ai/ha) | Plant response rating: Poinsettia, Wild ([2]; Preemergence, 125 g ai/ha) | Plant response rating: Johnsongrass ([8]; 125 g ai/ha) | Plant response rating: Beggarticks ([10]; Postemergence, 125 g ai/ha)
60: Plant response rating: Poinsettia, Wild ([2]; Postemergence, 62 g ai/ha)
13: Plant response rating: Poinsettia, Wild ([2]; Postemergence, 31 g ai/ha)
90: Plant response rating: Lambsquarters ([1]; 62 g ai/ha) | Plant response rating: Poinsettia, Wild ([2]; Postemergence, 125 g ai/ha) | Plant response rating: Crabgrass, Brazil ([5]; Preemergence, 16 g ai/ha) | Plant response rating: Kochia (kochia (Kochia scoparia); 125 g ai/ha)
65: Plant response rating: Johnsongrass ([8]; 250 g ai/ha)
80: Plant response rating: Nightshade ([9]; 62 g ai/ha) | Plant response rating: Beggarticks ([10]; Preemergence, 125 g ai/ha)
